Tested on: Artemia salina
Test: Toxicity against Artemia salina
Format: organism-based
Conditions: in vivo

Compound	LC50
CC(=O)O[C@@H]1/C(C(C)C)=C\C=C(/C)CC/C=C(\C)CC[C@@H]2O[C@]2(C)[C@H]1O [FLACCIDOXIDE]	180 ppm
CC(=O)O[C@H]1/C(C(C)C)=C\C=C(/C)CC/C=C(\C)CC[C@@H]2O[C@]2(C)[C@H]1C(C)=O	110 ppm
C/C1=C\C=C(\C(C)C)[C@@H](O)C[C@]2(C)O[C@H]2CC/C(C)=C/CC1	50 ppm
